The structures appear in SMILES notation. Where two headings read alike, the source gives them in different places.

The target of experiment [1] is h5-HT6 (Homo sapiens (Human), UniProt P50406). As to the kind of experiment: h5-HT6 binding assay with [3H]LSD on HEK-293 membranes. The conditions noted are these: h5-HT6, [3H]LSD, HEK-293 membranes; read-out: h5HT6 binding Ki. The procedure: Receptor binding was performed using membrane fractions prepared from the HEK-293 cell line recombinantly expressing rat 5-HT7 receptors (NCBI accession NM_022938). Compound affinity for the rat 5-HT7 receptor subtype was evaluated by competitive radioligand binding assays using 5-carboxamido[^3H]tryptamine ([^3H]5-CT) (Amersham Biosciences, cat. 90000403) detection. HitHunter™ cAMP assays are in-vitro based competitive immunoassays. The assay was performed on the HEK-293 cell line stably transfected with r5-HT7 receptor. Cells were pre-incubated with test compounds for 10 minutes. For antagonist testing, the cells were then challenged with 100 nM 5-CT for 20 minutes. Cells were then lysed and cAMP measured according to manufacturers protocol (Amersham, cat. NET791250UC) or [^3H]mesulergine (Amersham, cat. TRK1041). The assay was performed on membranes prepared from HEK-293 cells stably transfected with h5-HT6. Following centrifugation, membranes were resuspended and incubated for 60 min at room temperature with 1.7 nM [^3H]LSD in the presence of increasing concentration of test compounds. Nonspecific binding was defined in the presence of 10 μM clozapine (Tocris, cat. TRK1068). Homogenized HEK-293 membranes expressing the human SERT were incubated in 50 mM Tris-HCl (pH 7.5), 120 mM NaCl, 5 mM KCl with [^3H]-citalopram (3 nM) with or without test compounds. Nonspecific binding was determined in the presence of 10 μM fluoxetine. Radioactivity readouts and Ki values were performed as previously described for r5-HT7. […] Compounds were assayed in their free form or as salts, as indicated in the Examples section above.
Sequence of h5-HT6 (P50406 whole entry): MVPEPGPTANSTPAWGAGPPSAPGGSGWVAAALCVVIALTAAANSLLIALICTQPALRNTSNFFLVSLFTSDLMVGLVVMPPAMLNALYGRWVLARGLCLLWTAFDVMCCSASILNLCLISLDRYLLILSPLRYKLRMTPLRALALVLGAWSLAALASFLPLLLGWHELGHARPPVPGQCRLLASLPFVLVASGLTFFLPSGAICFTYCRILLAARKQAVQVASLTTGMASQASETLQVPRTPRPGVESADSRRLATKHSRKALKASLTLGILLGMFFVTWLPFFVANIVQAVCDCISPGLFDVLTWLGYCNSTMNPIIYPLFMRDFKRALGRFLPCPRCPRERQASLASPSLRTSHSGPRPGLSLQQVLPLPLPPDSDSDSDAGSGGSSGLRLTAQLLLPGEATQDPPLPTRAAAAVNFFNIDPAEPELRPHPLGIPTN

Experiment [2] deals with T1, h5HT2A (Homo sapiens (Human), UniProt P28223). As to the kind of experiment: h5HT2A binding.
T1 sequence (P28223 whole entry): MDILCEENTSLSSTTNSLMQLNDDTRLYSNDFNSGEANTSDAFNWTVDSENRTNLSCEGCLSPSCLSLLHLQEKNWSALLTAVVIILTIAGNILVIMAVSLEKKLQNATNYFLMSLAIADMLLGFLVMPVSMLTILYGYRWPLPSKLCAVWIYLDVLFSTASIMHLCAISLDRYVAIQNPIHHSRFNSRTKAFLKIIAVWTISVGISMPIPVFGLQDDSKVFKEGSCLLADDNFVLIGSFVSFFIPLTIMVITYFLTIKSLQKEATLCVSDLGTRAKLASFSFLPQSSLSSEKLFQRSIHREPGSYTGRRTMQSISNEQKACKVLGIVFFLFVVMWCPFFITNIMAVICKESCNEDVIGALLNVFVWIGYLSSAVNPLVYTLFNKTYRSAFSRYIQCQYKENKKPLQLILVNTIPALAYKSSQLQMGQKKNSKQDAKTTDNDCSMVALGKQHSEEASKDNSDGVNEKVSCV
In experiment [3] the target is T2, h5HT2C (Homo sapiens (Human), UniProt P28335). As to the kind of experiment: h5HT2C binding.
T2 sequence (P28335 33-458): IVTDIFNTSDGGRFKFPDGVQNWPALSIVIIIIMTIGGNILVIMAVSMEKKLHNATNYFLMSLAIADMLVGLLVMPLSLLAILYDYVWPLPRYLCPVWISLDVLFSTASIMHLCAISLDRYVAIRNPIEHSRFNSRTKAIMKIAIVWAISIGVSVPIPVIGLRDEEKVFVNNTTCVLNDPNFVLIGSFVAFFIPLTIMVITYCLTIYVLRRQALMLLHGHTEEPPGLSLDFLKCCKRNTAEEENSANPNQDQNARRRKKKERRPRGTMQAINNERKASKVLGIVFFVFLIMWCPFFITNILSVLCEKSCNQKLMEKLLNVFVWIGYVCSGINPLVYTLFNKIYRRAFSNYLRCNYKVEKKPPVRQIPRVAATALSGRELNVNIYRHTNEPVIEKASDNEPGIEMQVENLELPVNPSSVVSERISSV
The target in experiment [4] is human SERT (Homo sapiens (Human), UniProt P31645). Nature of the experiment: human SERT binding assay with [3H]-citalopram on HEK-293 membranes. To be noted: read-out: hSERT binding Ki.
Sequence of human SERT (P31645 whole entry): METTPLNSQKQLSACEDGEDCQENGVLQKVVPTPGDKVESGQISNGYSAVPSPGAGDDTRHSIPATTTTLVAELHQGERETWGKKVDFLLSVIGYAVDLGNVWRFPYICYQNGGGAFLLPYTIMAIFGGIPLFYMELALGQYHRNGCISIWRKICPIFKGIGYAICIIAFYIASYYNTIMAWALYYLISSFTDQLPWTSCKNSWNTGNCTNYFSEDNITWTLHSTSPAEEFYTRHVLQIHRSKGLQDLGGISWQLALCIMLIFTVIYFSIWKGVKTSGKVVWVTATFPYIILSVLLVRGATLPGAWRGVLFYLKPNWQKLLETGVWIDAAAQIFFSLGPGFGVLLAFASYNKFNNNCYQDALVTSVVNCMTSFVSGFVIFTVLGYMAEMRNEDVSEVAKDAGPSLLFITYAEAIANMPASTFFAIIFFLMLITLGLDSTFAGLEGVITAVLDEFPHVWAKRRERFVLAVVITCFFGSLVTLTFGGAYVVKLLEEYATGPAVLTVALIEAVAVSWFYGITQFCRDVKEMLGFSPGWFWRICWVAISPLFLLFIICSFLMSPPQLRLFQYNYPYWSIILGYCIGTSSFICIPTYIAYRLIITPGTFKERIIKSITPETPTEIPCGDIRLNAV
In experiment [5] the target is rat 5-HT7 receptor (Rattus norvegicus (Rat), UniProt P32305). As to the kind of experiment: r5-HT7 binding assay, competitive radioligand binding with [3H]5-CT. The method, boiled down: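 Whole r5-HT7-transfected HEK-293 cells first received test compound for 10 min. They were then exposed to 100 nM 5-CT for 20 min before lysis and competitive immunoassay of cAMP. Affinity came from displacement of [3H]5-CT on membranes of the same recombinant line, expressed as Ki.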
Sequence of rat 5-HT7 receptor (P32305 1-435): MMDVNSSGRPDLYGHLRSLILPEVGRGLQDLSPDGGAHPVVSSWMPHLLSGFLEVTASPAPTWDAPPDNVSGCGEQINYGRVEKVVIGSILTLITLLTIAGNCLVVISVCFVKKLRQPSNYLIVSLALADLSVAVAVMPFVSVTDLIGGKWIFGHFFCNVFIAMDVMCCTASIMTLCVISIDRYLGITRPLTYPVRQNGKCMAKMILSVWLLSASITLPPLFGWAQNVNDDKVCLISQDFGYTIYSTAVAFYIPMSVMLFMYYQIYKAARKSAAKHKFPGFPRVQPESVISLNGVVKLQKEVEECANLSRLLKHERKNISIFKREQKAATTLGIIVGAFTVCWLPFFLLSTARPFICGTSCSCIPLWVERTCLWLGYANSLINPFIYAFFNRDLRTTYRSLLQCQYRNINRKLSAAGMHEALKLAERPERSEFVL

The target of experiment [6] is T3, h5HT2B (Homo sapiens (Human), UniProt P41595). Nature of the experiment: h5HT2B binding.
T3 sequence (P41595 whole entry): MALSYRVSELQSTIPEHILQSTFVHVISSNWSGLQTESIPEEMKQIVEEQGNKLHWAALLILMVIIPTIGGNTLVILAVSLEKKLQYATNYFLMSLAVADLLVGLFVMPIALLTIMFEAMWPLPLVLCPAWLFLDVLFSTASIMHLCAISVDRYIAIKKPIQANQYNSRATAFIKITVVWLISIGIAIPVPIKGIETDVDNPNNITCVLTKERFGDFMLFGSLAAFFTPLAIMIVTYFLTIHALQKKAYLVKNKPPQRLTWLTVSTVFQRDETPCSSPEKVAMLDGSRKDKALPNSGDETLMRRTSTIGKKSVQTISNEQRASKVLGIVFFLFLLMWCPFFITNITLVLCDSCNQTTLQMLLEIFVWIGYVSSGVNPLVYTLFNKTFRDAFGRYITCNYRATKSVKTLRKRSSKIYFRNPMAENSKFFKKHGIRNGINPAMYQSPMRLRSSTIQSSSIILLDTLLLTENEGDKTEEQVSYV
The target in experiment [7] is T1, h5HT2A. Nature of the experiment: h5HT2A binding. The source holds these as a separate data set.
For experiment [8], the target named is T2, h5HT2C. Nature of the experiment: h5HT2C binding. The source holds these as a separate data set.
Experiment [9] deals with T3, h5HT2B. Nature of the experiment: h5HT2B binding. The source holds these as a separate data set.
For experiment [10], the target named is r5-HT7 receptor (Rattus norvegicus (Rat), UniProt P32305). As to the kind of experiment: HitHunter cAMP assay, antagonist testing against 100 nM 5-CT. It is filed as cell-based. The conditions noted are these: antagonist testing, 100 nM 5-CT challenge, HEK-293 r5-HT7; read-out: R5HT7 cAMP pKb (converted). The procedure, abridged: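 Rat 5-HT7 binding: HEK-293 membrane fractions, [3H]5-CT displacement, radioactivity counted, Ki reported. Antagonist mode: intact r5-HT7 HEK-293 cells, test compound 10 min, then 5-CT 100 nM for 20 min, lysis, cAMP by competitive immunoassay.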
Sequence of r5-HT7 receptor (P32305 1-435): as the sequence (P32305 1-435) above

[11] abbreviates: rat 5-HT7 receptor, HEK-293 membranes.

Take `Brc1ccc(OCCc2ccccc2)c(OC2CNC2)c1` [Example 195, 3-(5-Bromo-2-phenethyloxy-phenoxy)-azetidine]: the Ki in experiment [1] amounted to 27 nM; in experiment [2], 10 nM; in experiment [3], 42 nM; in [4], 60 nM; in experiment [5] (setting [11]) it was 2 nM; in [6] it was 4 nM.
Turning to `COc1ccc2c(c1)CC(Oc1ccc(Cl)cc1OC1CNC1)C2` (stereo not shown) [Example 177, 3-[5-Chloro-2-(5-methoxy-indan-2-yloxy)-phenoxy]-azetidine], the Ki in [1] came to 123 nM; in experiment [2], 35 nM; in [3], 140 nM; in experiment [4], 262 nM; in experiment [5] (setting [11]) it was 12 nM; in experiment [6], 56 nM.
As for `Cc1ccc(Oc2cc(Cl)ccc2O[C@H]2CCNC2)cc1` [Example 266, (S)-3-(4-Chloro-2-p-tolyloxy-phenoxy)-pyrrolidine], the Ki in experiment [7] was 150 nM; in experiment [8], 230 nM; in [5] (rat 5-HT7, HEK-293 membranes), greater than 10000 nM; in experiment [9] it was 130 nM.
The matching figures for `Cc1ccccc1Oc1cc(Cl)ccc1O[C@H]1CCNC1` [Example 272, (S)-3-(4-Chloro-2-o-tolyloxy-phenoxy)-pyrrolidine]: 220 nM, 330 nM, greater than 10000 nM and 310 nM.
The matching figures for `CC(C)c1ccc(Oc2cc(Cl)ccc2O[C@H]2CCNC2)cc1` [Example 278, (S)-3-[4-Chloro-2-(4-isopropyl-phenoxy)-phenoxy]-pyrrolidine]: 1400 nM, 330 nM, greater than 10000 nM and 1300 nM.
The like results for `Clc1ccc(Oc2cc(Cl)ccc2O[C@H]2CCNC2)cc1` [Example 275, (S)-3-[4-Chloro-2-(4-chloro-phenoxy)-phenoxy]-pyrrolidine] were, in that order, 530 nM, 220 nM, greater than 10000 nM and 910 nM.
For `Cc1ccc(Oc2cc(Cl)ccc2O[C@@H]2CCN(C)C2)cc1` [Example 268, (R)-3-(4-Chloro-2-p-tolyloxy-phenoxy)-1-methyl-pyrrolidine], the Ki in experiment [7] turned out to be 150 nM; in experiment [8], 380 nM; in experiment [5] (rat 5-HT7, HEK-293 membranes) it was 820 nM; in [9], 130 nM.
As for `CC(Oc1ccc(Br)cc1OC1CNC1)c1cccc(Cl)c1` (racemic) [Example 111, (±)-3-[5-Bromo-2-[1-(3-chloro-phenyl)-ethoxy]-phenoxy]-azetidine], the Ki in experiment [1] was found to be 268 nM; in [2], 73 nM; in experiment [3], 331 nM; in experiment [4], 118 nM; in [5] (setting [11]), 10 nM; in experiment [6], 69 nM.
Turning to `CC(Oc1ccc(Cl)cc1OC1CNC1)c1cccc(C(F)(F)F)c1` (stereo in doubt) [Example 101, (S)-3-[5-Chloro-2-[1-(3-trifluoromethyl-phenyl)-ethoxy]-phenoxy]-azetidine], the Ki in experiment [1] was 746 nM; in experiment [2], 317 nM; in experiment [3], 933 nM; in experiment [4], 152 nM; in experiment [5] (setting [11]), 5 nM; in [6], 203 nM.
Consider `Cc1cc(Oc2cc(Cl)ccc2O[C@H]2CCNC2)ccc1F` [Example 274, (S)-3-[4-Chloro-2-(4-fluoro-3-methyl-phenoxy)-phenoxy]-pyrrolidine], for which the Ki worked out at 100 nM in experiment [7]; 230 nM in experiment [8]; 8600 nM in [5] (rat 5-HT7, HEK-293 membranes); 170 nM in [9].
The like results for `Cc1cccc(Oc2cc(Cl)ccc2O[C@H]2CCNC2)c1` [Example 273, (S)-3-(4-Chloro-2-m-tolyloxy-phenoxy)-pyrrolidine] were, in that order, 82 nM, 150 nM, greater than 5000 nM and 160 nM.
The matching figures for `CN1CC[C@@H](Oc2ccc(Cl)cc2Oc2ccc(F)cc2)C1` [Example 271, (R)-3-[4-Chloro-2-(4-fluoro-phenoxy)-phenoxy]-1-methyl-pyrrolidine]: 78 nM, 350 nM, 660 nM and 98 nM.
Turning to `Clc1ccc(OCCc2ccccc2)c(OC2CNC2)c1` [Example 186], the Ki in experiment [1] was determined as 33 nM; in [2] it was 14 nM; in experiment [3], 79 nM; in [4], 53 nM; in experiment [5] (setting [11]), 5 nM; in [6], 8 nM.
Turning to `C[C@@H]1NC[C@H]1Oc1cc(Br)ccc1OCc1cccc(F)c1` (racemic) [Example 219, (±)-trans-3-[5-Bromo-2-(3-fluoro-benzyloxy)-phenoxy]-2-methyl-azetidine], the Ki in [8] came to 31 nM; in experiment [4] it was 68 nM; in [5] (rat 5-HT7, HEK-293 membranes) it was 9 nM.
`Clc1cccc(Oc2cc(Cl)ccc2O[C@H]2CCNC2)c1` [Example 276, (S)-3-[4-Chloro-2-(3-chloro-phenoxy)-phenoxy]-pyrrolidine]: the Ki was 84 nM in experiment [7]; 120 nM in experiment [8]; greater than 10000 nM in [5] (rat 5-HT7, HEK-293 membranes); 190 nM in experiment [9].
Take `C[C@@H](Oc1ccc(Br)cc1OC1CNC1)c1cccc(C(F)(F)F)c1` [Example 113, (R)-3-[5-Bromo-2-[1-(3-trifluoromethyl-phenyl)-ethoxy]-phenoxy]-azetidine]: the Ki in experiment [1] was 496 nM; in experiment [2], 206 nM; in experiment [3], 490 nM; in experiment [5] (setting [11]) it was 11 nM; in experiment [6], 122 nM.
As to `C[C@@H](Oc1ccc(Cl)cc1OC1CCNCC1)c1cccc(C(F)(F)F)c1` [Example 135, (R)-4-[5-Chloro-2-[1-(3-trifluoromethyl-phenyl)-ethoxy]-phenoxy]-piperidine], the Ki was determined as 1280 nM in experiment [1]; 140 nM in [2]; 755 nM in experiment [3]; 96 nM in experiment [4]; 15 nM in [5] (setting [11]); 27 nM in experiment [6].
Turning to `Clc1cccc(COc2ccc(Br)cc2OC2CNC2)c1` [Example 2, 3-[5-Bromo-2-(3-chloro-benzyloxy)-phenoxy]-azetidine], the Ki is 47 nM in experiment [1]; 42 nM in experiment [2]; 760 nM in experiment [3]; 1 nM in experiment [4]; 12 nM in experiment [5] (setting [11]); 74 nM in experiment [6]. Also, in experiment [10], the Kb is 31.6 nM.
For `Fc1ccc(Oc2cc(Cl)ccc2O[C@H]2CCNC2)cc1` [Example 269, (S)-3-[4-Chloro-2-(4-fluoro-phenoxy)-phenoxy]-pyrrolidine], the Ki in [7] was 190 nM; in experiment [8] it was 400 nM; in experiment [5] (rat 5-HT7, HEK-293 membranes), greater than 10000 nM; in [9], 500 nM.
Regarding `Clc1ccc(OC2CN(c3ccccc3)C2)c(OC2CNC2)c1` [Example 222, 3-[5-Chloro-2-(1-phenyl-azetidin-3-ol)-phenoxy]-azetidine], the Ki stood at 1010 nM in [8]; 2110 nM in experiment [4]; 18 nM in [5] (rat 5-HT7, HEK-293 membranes).
Consider `Clc1cccc(CCOc2ccc(Cl)cc2OC2CNC2)c1` [Example 185, 3-[5-Chloro-2-[2-(3-chloro-phenyl)-ethoxy]-phenoxy]-azetidine], for which the Ki was 177 nM in experiment [1]; 8 nM in experiment [2]; 91 nM in experiment [3]; 29 nM in [4]; 6 nM in [5] (setting [11]); 7 nM in experiment [6].

Source of the values: US9981909B2 (Janssen Pharmaceutica NV, priority 2008, dated 2018).
